Data reported in patent US20060188508A1, “Methods and compositions for modulating angiogenesis” (priority 2005, published 2006).
Ends that are not written are not given here.

B1: anti-CD47 monoclonal antibody, clone B6H12 (BD Pharmingen) (antibody)
chain: EVQLVESGGDLVKPGGSLKLSCAASGFTFSGYGMSWVRQTPDKRLEWVATITSGGTYTYYPDSVKGRFTISRDNAKNTLYLQIDSLKSEDTAIYFCARSLAGNAMDYWGQGTSVTVSSGGGGSGGGGSGGGGSDIVMTQSPATLSVTPGDRVSLSCRASQTISDYLHWYQQKSHESPRLLIKFASQSISGIPSRFSGSGSGSDFTLSINSVEPEDVGVYYCQNGHGFPRTFGGGTKLEIK

Assays:
clone 18 cells [1] = assay: Modulation of drug cytotoxicity by added TSP-1, mimetic peptides, antibody or MDR inhibitor (MTT viability); assay type: cell-based, human; conditions: for Effect on taxol resistance / taxol cytotoxicity in clone 18: added to culture with various taxol concentrations, MTT
M2182tTA = assay: Drug sensitivity by MTT assay (IC50); assay type: cell-based, human; conditions: mean ± SD of three determinations
Clone 18 = assay: Drug sensitivity by MTT assay (IC50); assay type: cell-based, human; conditions: for IC50: MTT assay, mean ± SD of three determinations; for Fold of resistance (Clone 18/M2182tTA): IC50 of clone 18 divided with IC50 of M2182tTA; for Killing of clone 18 cells compared with parental cells: non-taxane drugs, Table 1
M2182tTA cells [2] = assay: Modulation of drug cytotoxicity by added TSP-1, mimetic peptides, anti-CD47 antibody or pertussis toxin (MTT viability); assay type: cell-based, human
clone 18 cells [3] = assay: TUNEL assay of taxol-induced apoptosis; assay type: cell-based, human; conditions: taxol plus 7.5 μg/ml purified TSP-1, 3 days
M2182tTA cells [4] = assay: Preliminary taxol exposure of plated cells before selection of resistant clones; assay type: cell-based, human; conditions: 5 days of exposure to 5 nM taxol; preliminary experiments
[5] = biological target: CD47 receptor (integrin-associated protein) (human, UniProt Q08722 19-323); assay: cell-based or functional assay
[6] = adriamycin, etoposide, vinblastine, vincristine, epothilone B

Molecule	Effect on taxol resistance / taxol cytotoxicity in clone 18 (clone 18 cells [1])	IC50 (M2182tTA; Homo sapiens)	IC50 (Clone 18; Homo sapiens)	Fold of resistance (Clone 18/M2182tTA) (Clone 18)	Killing of clone 18 cells compared with parental cells (Clone 18)	further results
KRFYVVMWKK [4N1K]	dose-dependent partial reversal	–	–	–	–	–
COc1cccc2c1C(=O)c1c(O)c3c(c(O)c1C2=O)C[C@@](O)(C(=O)CO)C[C@@H]3O[C@H]1C[C@H](N)[C@H](O)[C@H](C)O1 [Adriamycin, adriamycin]	–	0.15 ± 0.0099 µg/mL	0.133 ± 0.0071 µg/mL	0.83	No evidence of reduced killing	–
C/C(=C\c1csc(C)n1)[C@@H]1C[C@@H]2O[C@]2(C)CCC[C@H](C)[C@H](O)[C@@H](C)C(=O)C(C)(C)[C@@H](O)CC(=O)O1 [Epothilone B]	–	–	–	0.9	No evidence of reduced killing	IC50 (M2182tTA): 0.75 ± 0.35 nM; IC50 (Clone 18): 0.68 ± 0.21 nM
COc1cc([C@@H]2c3cc4c(cc3[C@@H](O[C@@H]3O[C@@H]5CO[C@@H](C)O[C@H]5[C@H](O)[C@H]3O)[C@H]3COC(=O)[C@H]23)OCO4)cc(OC)c1O [Etoposide, etoposide]	–	800 ± 30 nM	650 ± 60 nM	0.81	No evidence of reduced killing	–
CC(=O)O[C@@]12CO[C@@H]1C[C@H](O)[C@@]1(C)C(=O)[C@H](O)C3=C(C)[C@@H](OC(=O)[C@H](O)[C@@H](NC(=O)OC(C)(C)C)c4ccccc4)C[C@@](O)([C@@H](OC(=O)c4ccccc4)[C@H]21)C3(C)C [Docetaxel]	–	2.66 ± 0.11 nM	6.93 ± 0.05 nM	2.62	–	–
CC[C@]1(O)C[C@@H]2CN(CCc3c([nH]c4ccccc34)[C@@](C(=O)OC)(c3cc4c(cc3OC)N(C)[C@H]3[C@@](O)(C(=O)OC)[C@H](OC(C)=O)[C@]5(CC)C=CCN6CC[C@]43[C@@H]65)C2)C1 [Vinblastine, vinblastine]	–	7.5 ± 0.18 nM	7 ± 0.21 nM	0.93	No evidence of reduced killing	–
KRFYGGMWKK [4NGG]	no effect	–	–	–	–	–
GVITRIR (human) [ABT-510]	no effect	–	–	–	–	–
TSP-1: TSP-1 purified from human platelets, purchased from EMD Biosciences	dose-dependent partial reversal	–	–	–	–	Survival and apoptosis with agent alone (clone 18 cells [1]; TSP-1 alone at the dosage added to clone 18 cultures): only limited ability to reduce survival and induce apoptosis; Effect on killing of clone 18 cells by other chemotherapeutic agents (clone 18 cells [1]; [6]): no effects; Effect on taxol-mediated killing of naïve M2182tTA cells (M2182tTA cells [2]; added to culture with taxol, MTT): reduced survival; Effect on sensitivity of M2182tTA cells to other chemotherapeutic drugs (M2182tTA cells [2]; [6]): sensitization was not observed; Taxol-induced apoptosis (clone 18 cells [3]): dramatically and synergistically increased
CC(=O)O[C@H]1C(=O)[C@@]2(C)[C@H]([C@H](OC(=O)c3ccccc3)[C@]3(O)C[C@H](OC(=O)[C@H](O)[C@@H](NC(=O)c4ccccc4)c4ccccc4)C(C)=C1C3(C)C)[C@]1(OC(C)=O)CO[C@@H]1C[C@@H]2O [Taxol, Paclitaxel]	–	7.2 ± 0.11 nM	17.5 ± 0.18 nM	2.45	–	Fold of resistance (Clone 18/M2182tTA) (Clone 18; listed as taxol): approximately two and a half-fold; Surviving M2182tTA cells (M2182tTA cells [4]): no surviving M2182tTA cells
CC[C@]1(O)C[C@H]2CN(CCc3c([nH]c4ccccc34)[C@@](C(=O)OC)(c3cc4c(cc3OC)N(C=O)[C@H]3[C@@](O)(C(=O)OC)[C@H](OC(C)=O)[C@]5(CC)C=CCN6CC[C@]43[C@@H]65)C2)C1 [Vincristine, vincristine]	–	–	12 ± 0.42 nM	1.09	No evidence of reduced killing	–
B1	–	–	–	–	–	viability of M2182tTA cells to taxol treatment (MTT assay, 10 ug/ml antibody) [5]: 2.2 fold
